Converted amounts (≈) assume the structure as drawn. Where two headings read alike, the source gives them in different places. Marks after values point to notes of the source that are not given here. Ends that are not written are not given here. Peptide text beside a SMILES is read from it.
How the values were obtained:
[1] = test system: Candida krusei CBS 573; test: MIC, CLSI-M27A3 broth microdilution in RPMI 1640; type: cell-based; settings: Pichia kudriavzevii, CBS573, 48 h, pH 7; read-out: MIC of the drug alone (a)
Protocol: (§1) Susceptibility tests were performed in low ionic strength broth medium (LCM: 0.5% glucose, 0.25% yeast extract, 0.0125% peptone (w/v)) and in RPMI 1640 medium (Sigma-Aldrich, St Louis, MO, USA) supplemented with 0.03% (w/v) L-glutamine and buffered to pH 7.0 with 0.165 M 4-morpholinopropanesulfonic acid (Sigma-Aldrich, St Louis, MO, USA).
(§2) The CLSI-M27A3 broth microdilution method (Clinical and Laboratory Standards Institute, [2008]) was applied to determinate the minimal inhibitory concentrations (MIC) of FLC (Sigma-Aldrich, St Louis, MO, USA) and rNFAP2 against the Candida isolates (10^3 cells ml^−1) under clinically approved test conditions. For this experiment, the rNFAP2 stock was prepared in bidistilled water, and FLC in dimethyl sulfoxide (DMSO). The investigated concentration range was 64–0.0625 μg ml^−1 for FCL and 100–0.39 μg ml^−1 for rNFAP2.
(§3) LCM plates were incubated at 30°C, while RPMI 1640 plates at 35°C for 48 h without shaking, then the absorbance (OD620) was measured with a microtiter plate reader (SPECTROstar Nano, BMG Labtech, Ortenberg, Germany) after resuspension of the cultures with pipette. The absorbance of the untreated control cultures was referred to 100% growth in each case.
(§4) All susceptibility tests were repeated at least two times in three replicates.

[2] = test system: Candida parapsilosis CBS 604; test: MIC, CLSI-M27A3 broth microdilution in RPMI 1640; type: cell-based
Protocol: as §1, §2, §3, §4

[3] = test system: Candida albicans ATCC 10231; test: MIC, CLSI-M27A3 broth microdilution in RPMI 1640; type: cell-based
Protocol: as §1, §2, §3, §4

[4] = test system: Candida parapsilosis CBS 604; test: Checkerboard microdilution, rNFAP2 with FLC, RPMI 1640; type: cell-based; settings: rNFAP2 combined with FLC; RPMI 1640, 10^3 cells ml^−1, 48 h, 35°C
Protocol: (§5) Antifungal synergism between rNFAP2 and FLC were investigated using the checkerboard microdilution method (Eliopoulos and Moellering, [1996]) in RPMI 1640 medium applying the drug stock preparation method and cultivation conditions described in CLSI-M27A3 document (Clinical and Laboratory Standards Institute, [2008]). […] The fractional inhibitory concentration index (FICI) as a measure of synergism and antagonism was calculated (Johnson et al., [2004]). Synergism was defined as FICI≤0.5, indifference as 0.5 < FICI ≤ 4 and antagonism was defined when FICI > 4 (Odds, [2003]).
as §3, §4

[5] = test system: Candida albicans ATCC 10231; test: as above; type: cell-based; settings: rNFAP2 combined with FLC; RPMI 1640, 10^3 cells ml^−1, 48 h, 35°C
Protocol: as §5, §3, §4

[6] = test system: Candida krusei CBS 573
Protocol: as §1
(§6) Antifungal susceptibility tests were performed with nNFAP2, rNFAP2, and sNFAP2 and its peptide fragments in LCM medium against yeast isolates (10^5 cells ml^−1) according to the broth microdilution method described by Tóth et al. ([2016]). Final drug concentration ranged from 25 to 0.098 μg ml^−1 for rNFAP2 and sNFAP2, and from 100 to 6.25 μg ml^−1 for the synthetic peptide fragments. The rNFAP2 was tested against nine yeast isolates, while the sNFAP2 and the synthetic peptide fragments against C. albicans ATCC 10231, C. krusei CBS 573, C. parapsilosis CBS 604, and S. cerevisiae SZMC 0644.
as §3, §4

[7] = test system: Saccharomyces cerevisiae SZMC 0644
Protocol: as §1, §6, §3, §4

[8] = test system: Candida parapsilosis CBS 604
Protocol: as §1, §6, §3, §4

[9] = test system: Candida albicans ATCC 10231
Protocol: as §1, §6, §3, §4

[10] = test system: C. albicans ATCC 10231 cells; test: Propidium iodide (PI) staining, plasma membrane disruption; type: cell-based, Candida albicans; settings: treatment at MIC in LCM, 10 min, 30°C; 5 μg ml^−1 PI; fluorescence microscopy
Protocol: After the treatment, cells were washed with LCM, and then stained with 5 μg ml^−1 PI for 10 min at room temperature in the dark, and then they were washed again with LCM and resuspended in final volume of 100 μl LCM. Cells treated with 70% (v/v) ethanol for 10 min at 4°C were used as positive staining control. Untreated cells were used as negative staining control.
Yeast cells were visualized by light and fluorescence microscopy (Carl Zeiss Axiolab LR 66238C; Zeiss, Oberkochen, Germany) and photographed with a microscope camera (Zeiss AxioCam ERc 5s; Zeiss, Oberkochen, Germany).

[11] = Thermal unfolding followed by ECD spectroscopy; type: physicochemical; settings: for thermal denaturation reversibility: ECD at 95°C, then re-measured after cooling, 5 min at 25°C; for Tm (melting temperature of the native protein structure): ECD at 228 nm, 25 to 95°C at 1°C min^−1, approx. 0.1 mg ml^−1 in H2O, inflection of sigmoidal fit; for native fold remains intact up to: thermal unfolding followed by ECD
Protocol: ECD spectroscopic measurements were performed using a Jasco-J815 spectropolarimeter (JASCO Corporation, Tokyo, Japan), in the far-UV range (185–260 nm). Protein samples were dissolved in pure H2O in approximately 0.1 mg ml^−1 concentration and measured in a 0.1 cm pathlength quartz cuvette. First, ECD spectra of samples were recorded at 25°C with a scan speed of […]. […] The system was allowed to equilibrate for 1 min before measurements were taken at each temperature point.
The obtained melting curves were fitted with an inverse sigmoidal function of which inflection point designated the melting temperature (Tm) of the native protein structure.
ECD spectra were also recorded at 95°C, the final temperature of the thermal unfolding experiments, then samples were allowed to cool and measured again after 5 min of equilibration at 25°C. The reported spectra are accumulations of 10 scans, from which the similarly recorded, corresponding solvent spectrum was subtracted. Data are given as molar ellipticities. Accurate protein sample concentrations for the corrections of ECD spectra were determined using analytical RP-HPLC.

[12] = test system: Candida tropicalis CBS 94; test: MIC, broth microdilution in LCM; type: cell-based; settings: 10^5 cells ml^−1, 48 h, 30°C, MIC = growth ≤ 5% (OD620)
Protocol: as §1, §6, §3, §4

[13] = test system: Schizosaccharomyces pombe SZMC 0142; test: MIC, broth microdilution in LCM; type: cell-based; settings: 10^5 cells ml^−1, 48 h, 30°C, MIC = growth ≤ 5% (OD620)
Protocol: as §1, §6, §3, §4

[14] = test system: Candida lusitaniae CBS 6936; test: MIC, broth microdilution in LCM; type: cell-based; settings: 10^5 cells ml^−1, 48 h, 30°C, MIC = growth ≤ 5% (OD620)
Protocol: as §1, §6, §3, §4

[15] = test system: Candida glabrata CBS 138; test: MIC, broth microdilution in LCM; type: cell-based; settings: 10^5 cells ml^−1, 48 h, 30°C, MIC = growth ≤ 5% (OD620)
Protocol: as §1, §6, §3, §4

[16] = test system: Candida guilliermondii CBS 566; test: MIC, broth microdilution in LCM; type: cell-based; settings: 10^5 cells ml^−1, 48 h, 30°C, MIC = growth ≤ 5% (OD620)
Protocol: as §1, §6, §3, §4

[17] = test system: Candida tropicalis CBS 94; test: MIC, CLSI-M27A3 broth microdilution in RPMI 1640; type: cell-based; settings: RPMI 1640 pH 7.0, 10^3 cells ml^−1, 48 h, 35°C; MIC = growth ≤ 5%
Protocol: as §1, §2, §3, §4

[18] = test system: Candida lusitaniae CBS 6936; test: MIC, CLSI-M27A3 broth microdilution in RPMI 1640; type: cell-based; settings: RPMI 1640 pH 7.0, 10^3 cells ml^−1, 48 h, 35°C; MIC = growth ≤ 5%
Protocol: as §1, §2, §3, §4

[19] = test system: Candida glabrata CBS 138; test: MIC, CLSI-M27A3 broth microdilution in RPMI 1640; type: cell-based; settings: RPMI 1640 pH 7.0, 10^3 cells ml^−1, 48 h, 35°C; MIC = growth ≤ 5%
Protocol: as §1, §2, §3, §4

[20] = test system: Candida guilliermondii CBS 566; test: MIC, CLSI-M27A3 broth microdilution in RPMI 1640; type: cell-based; settings: RPMI 1640 pH 7.0, 10^3 cells ml^−1, 48 h, 35°C; MIC = growth ≤ 5%
Protocol: as §1, §2, §3, §4

[21] = test system: Candida krusei CBS 573; test: Checkerboard microdilution, rNFAP2 with FLC, RPMI 1640; type: cell-based; settings: rNFAP2 combined with FLC; RPMI 1640, 10^3 cells ml^−1, 48 h, 35°C
Protocol: as §5, §3, §4

[22] = LCM, 10^5 cells ml^−1, 48 h, 30°C, MIC = growth ≤ 5% (OD620)
[23] = RPMI 1640 pH 7.0, 10^3 cells ml^−1, 48 h, 35°C, MIC = growth ≤ 5%

| Compound | MIC of the drug in combination (c) [4] [µg/mL] | MIC of the drug in combination (c) [5] [µg/mL] | MIC ([6]; CBS 573, 48 h) [µg/mL] | MIC ([7]; SZMC 0644, 48 h) [µg/mL] | MIC ([8]; CBS 604, 48 h) [µg/mL] | MIC ([9]; ATCC 10231, 48 h) [µg/mL] | Plasma membrane disruption (PI staining) [10] | thermal denaturation reversibility [11] | Tm (melting temperature of the native protein structure) [11] [°C] | native fold remains intact up to [11] | MIC [6, 22] [µg/mL] | MIC [7, 22] [µg/mL] | MIC [8, 22] [µg/mL] | MIC [9, 22] [µg/mL] | MIC [12] [µg/mL] | MIC [13] [µg/mL] | MIC [14] [µg/mL] | MIC [15] [µg/mL] | MIC [16] [µg/mL] | also measured |
| --- | --- | --- | --- | --- | --- | --- | --- | --- | --- | --- | --- | --- | --- | --- | --- | --- | --- | --- | --- | --- |
| OC(Cn1cncn1)(Cn1cncn1)c1ccc(F)cc1F [FLC, fluconazole, reference compound] | 1 | 0.25 |  |  |  |  |  |  |  |  |  |  |  |  |  |  |  |  |  | MIC [1]: 64 µg/mL; MIC ([2]; Lodderomyces parapsilosis, CBS604, 48 h, pH 7, read-out: MIC of the drug alone (a)): 8 µg/mL; MIC ([3]; Candida albicans, ATCC10231, 48 h, pH 7, read-out: MIC of the drug alone (a)): 1 µg/mL |
| CC[C@H](C)[C@H](NC(=O)[C@H](CS)NC(=O)[C@H](CC(N)=O)NC(=O)[C@H](CC(C)C)NC(=O)[C@H](CCC(N)=O)NC(=O)CNC(=O)CNC(=O)[C@H](CCC(N)=O)NC(=O)[C@H](Cc1c[nH]c2ccccc12)NC(=O)[C@H](CCC(=O)O)NC(=O)[C@H](CS)NC(=O)[C@H](CCCCN)NC(=O)CN)C(=O)N[C@@H](C)C(=O)N[C@H](C(=O)O)[C@@H](C)O [Fr-3] (H-GKCEWQGGQLNCIAT-OH; N-terminus and C-terminus assumed) |  |  | >100 | >100 | >100 | >100 | did not disrupt the plasma membrane |  |  |  |  |  |  |  |  |  |  |  |  |  |
| NCCCC[C@H](NC(=O)[C@H](CCCCN)NC(=O)[C@H](Cc1c[nH]cn1)NC(=O)[C@H](CCCCN)NC(=O)[C@H](CS)NC(=O)[C@H](CC(N)=O)NC(=O)[C@@H](N)CC(N)=O)C(=O)NCC(=O)N[C@@H](CO)C(=O)NCC(=O)N[C@@H](CS)C(=O)O [Fr-4] (H-NNCKHKKGSGC-OH; N-terminus and C-terminus assumed) |  |  | 50 (≈ 42.5 µM) | 50 (≈ 42.5 µM) | 50 (≈ 42.5 µM) | 50 (≈ 42.5 µM) | prompt plasma membrane disruption effect |  |  |  |  |  |  |  |  |  |  |  |  |  |
| NCCCC[C@H](NC(=O)CNC(=O)[C@H](CCCCN)NC(=O)[C@H](CC(N)=O)NC(=O)[C@H](CS)NC(=O)[C@@H](N)CS)C(=O)N[C@@H](CC(N)=O)C(=O)N[C@@H](CCCCN)C(=O)NCC(=O)N[C@@H](CO)C(=O)N[C@@H](Cc1c[nH]cn1)C(=O)O [Sh-Fr-4] (H-CCNKGKNKGSH-OH; N-terminus and C-terminus assumed) |  |  | 50 (≈ 42.5 µM) | 50 (≈ 42.5 µM) | 50 (≈ 42.5 µM) | 50 (≈ 42.5 µM) | prompt plasma membrane disruption effect |  |  |  |  |  |  |  |  |  |  |  |  |  |
| IATSPYYACNCPNNCKHKKGSGCKYHSGPSDKSKVISGKCEWQGGQLNCIAT (disulfide (positions not given here)) [nNFAP2] |  |  |  |  |  |  |  | reversible | 72.92 | approximately 70 °C | 12.5 | 3.125 | 1.56 | 6.25 | 1.56 | 1.56 | 3.125 | 1.56 | 1.56 |  |
| IATSPYYACNCPNNCKHKKGSGCKYHSGPSDKSKVISGKCEWQGGQLNCIAT (disulfide (positions not given here)) [rNFAP2, recombinant NFAP2 produced by P. chrysogenum nfap2] | 6.25 | 6.25 |  |  |  |  |  | reversible | 75.79 | approximately 70 °C | 12.5 | 3.125 | 1.56 | 6.25 | 1.56 | 1.56 | 3.125 | 1.56 | 1.56 | MIC of the drug alone (a) [17]: >100 µg/mL; MIC of the drug alone (a) [2, 23]: 100 µg/mL; MIC of the drug alone (a) [18]: >100 µg/mL; MIC of the drug alone (a) [3, 23]: 200^* μg ml^−1; MIC of the drug alone (a) [19]: 12.5 µg/mL; MIC of the drug alone (a) [20]: 3.125 µg/mL; MIC of the drug in combination (c) [21]: 6.25 µg/mL |

Source: publication PMC5845869 (Frontiers in Microbiology, 2018)
